Results on 27 compounds are retold here after ChEMBL document CHEMBL1138035, “Antitumor agents. 250. Design and synthesis of new curcumin analogues as potential anti-prostate cancer agents” (J Med Chem, 2006).

One test has as its system PC-3. Kind of test: Cytotoxicity against human PC3 cell line. The class given is functional, cell-based.
Another test deals with LNCaP. Kind of test: Cytotoxicity against human LNCaP cell line. The class given is functional, cell-based.
Setting [1] is: Homo sapiens, PC-3, read-out: IC50.

One may read the IC50 as the concentration that inhibits the measured activity by half.

Regarding `CCOC(=O)CC\C(C(=O)/C=C/C=C/c1ccc(O)c(OC)c1)=C(O)/C=C/C=C/c1ccc(O)c(OC)c1`, the figures for the IC50 with PC-3 (setting [1]) and in the test on LNCaP were 6.4 µM and 3.1 µM, respectively.

Regarding `CCOC(=O)CC/C(C(C)=O)=C(O)\C=C\c1ccc(O)c(OC)c1`, the IC50 amounted to 43.7 µM in the test on PC-3 (setting [1]) and 51.5 µM with LNCaP.

In the case of `COc1cc(/C=C/C(O)=C/C(C)=O)ccc1O`, the values for the IC50 in the test with PC-3 (setting [1]) and in the test with LNCaP were 8 µM and 6.2 µM, respectively.

As to `COc1cc(/C=C/C(O)=C/C(=O)/C=C/c2ccc[nH]2)ccc1O`, the 50% inhibitory concentration (IC50) with PC-3 (setting [1]) was 15.4 µM; in the test with LNCaP it was 13.6 µM.

`COc1ccc(/C=C/C(=O)/C=C(O)/C=C/c2ccc(OC)c(OC)c2OC)c(OC)c1OC`: the IC50 with PC-3 (setting [1]) was 8.1 µM; in the test on LNCaP, 4.8 µM.

As to `COc1ccc(/C=C/C(O)=C/C(=O)/C=C/c2ccc(OC)c(OC)c2)cc1O`, the IC50 in the test with PC-3 (setting [1]) came to 5.5 µM; in the test on LNCaP, 4.8 µM.

With `Cc1cc(/C=C/C(=O)/C=C(O)/C=C/c2ccc(O)c(C)c2)ccc1O`, the IC50 in the test on PC-3 (pc-3) is 4.8 µM; with LNCaP it was 1.8 µM.

For `COc1ccc(/C=C/C(O)=C/C(C)=O)cc1OC`, the IC50 in the test on PC-3 (setting [1]) stood at 7 µM; in the test with LNCaP, 6.6 µM.

In the case of `COc1ccc(/C=C/C(=O)CC(O)/C=C/c2ccc(OC)c(OC)c2)cc1OC` (centres undefined), the figures for the concentration for half-maximal inhibition (IC50) in the test on PC-3 (setting [1]) and in the test with LNCaP were 18.4 µM and 17.7 µM, respectively.

Consider `COc1cc(OC)c(OC)cc1/C=C/C(=O)/C=C(O)/C=C/c1cc(OC)c(OC)cc1OC`, for which the figures for the IC50 in the test with PC-3 (setting [1]) and in the test on LNCaP were 2.4 µM and 2.9 µM, respectively.

`COc1cc(/C=C/C(=O)/C=C(O)/C=C/c2ccc(OC)c(OC)c2)ccc1O`: the values for the IC50 with PC-3 (setting [1]) and in the test with LNCaP were 6 µM and 3.3 µM, respectively.

As for `COc1ccc(/C=C/C(=O)/C=C(O)/C=C/c2ccc(OC)c(O)c2)cc1O`, the values for the IC50 in the test with PC-3 (setting [1]) and with LNCaP were 8.6 µM and 10.9 µM, respectively.

For the compound `COc1cc(/C=C/C(=O)CC(=O)/C=C/c2ccc(O)c(OC)c2)ccc1O` [CURCUMIN], the IC50 in the test on PC-3 (setting [1]) came out at 7.7 µM; in the test on LNCaP it was 3.8 µM.

In the case of `COc1cc(/C=C/C(=O)/C(C(C)=O)=C(O)/C=C/c2ccc(O)c(OC)c2)ccc1O`, the IC50 in the test on PC-3 (setting [1]) was found to be 23.4 µM; in the test on LNCaP it was 8.8 µM.

On to `COc1ccc(/C=C/C(=O)/C=C(O)/C=C/c2ccc(OC)c(OC)c2)cc1OC`, for which the values for the IC50 in the test with PC-3 (setting [1]) and in the test with LNCaP were 1.1 µM and 1.3 µM, respectively.

Turning to `COc1cc(OC)c(OC)cc1/C=C/C(=O)/C=C(O)/C=C/c1ccc(OC)c(OC)c1`, the values for the IC50 in the test with PC-3 (setting [1]) and in the test on LNCaP were 8.2 µM and 8.6 µM, respectively.

Take `COc1ccc(/C=C/C(=O)C(C)C(=O)/C=C/c2ccc(OC)c(OC)c2)cc1OC`: the figures for the IC50 with PC-3 (setting [1]) and with LNCaP were 3.5 µM and 5.8 µM, respectively.

As for `CCO/C(O)=C/C=C(C(=O)/C=C/c1ccc(O)c(OC)c1)C(=O)/C=C/c1ccc(O)c(OC)c1`, the half-maximal inhibitory concentration (IC50) with PC-3 (setting [1]) is 11.7 µM; in the test on LNCaP, 7 µM.

In the case of `COc1cc(/C=C/C(O)=C/C(=O)/C=C/c2ccc(CO)o2)ccc1O`, the IC50 came to 9 µM in the test with PC-3 (setting [1]) and 7.3 µM in the test with LNCaP.

Consider `COc1ccc(/C=C/C(=O)C(/C=C/CO)=C(O)/C=C/c2ccc(OC)c(OC)c2)cc1OC`, for which the results for the IC50 in the test on PC-3 (setting [1]) and in the test on LNCaP were 1.3 µM and 0.2 µM, respectively.

As to `COc1cc(/C=C/C(O)=C/C(=O)/C=C/c2cccs2)ccc1O`, the half-maximal inhibitory concentration (IC50) was determined as 7.7 µM with PC-3 (setting [1]) and 6.3 µM in the test on LNCaP.

For `COc1ccc(/C=C/C(O)=C/C(C)=O)cc1O`, the IC50 in the test with PC-3 (setting [1]) is 6.1 µM; in the test with LNCaP, 5.3 µM.

Turning to `CCOC(=O)CC/C(C(=O)/C=C/c1ccc(OC2CCCCO2)c(OC)c1)=C(O)\C=C\c1ccc(OC2CCCCO2)c(OC)c1` (centres undefined), the figures for the IC50 in the test with PC-3 (setting [1]) and in the test with LNCaP were 12.3 µM and 4.2 µM, respectively.

As for `COc1ccc(/C=C/C(O)=C/C(C)=O)c(OC)c1`, the IC50 in the test on PC-3 (setting [1]) stood at 12.3 µM; with LNCaP, 9.9 µM.

In the case of `COc1ccc(/C=C/C(=O)/C=C/c2ccc(OC)cc2OC)c(OC)c1`, the figures for the IC50 in the test on PC-3 (setting [1]) and in the test with LNCaP were 18.7 µM and 21.8 µM, respectively.

Consider `CCOc1ccc(/C=C/C(=O)/C=C(O)/C=C/c2ccc(OCC)c(OC)c2)cc1OC`, for which the IC50 in the test with PC-3 (setting [1]) came out at 20.3 µM; with LNCaP, 6.5 µM.

Take `COc1ccc(/C=C/C(O)=C/C(=O)/C=C/c2ccc(OC)c(OC)c2OC)cc1OC`: the IC50 in the test on PC-3 (setting [1]) came to 9.1 µM; in the test with LNCaP, 7.7 µM.
